In experiment [1] the target is His-Rac1 / GST-PBD (PAK Binding Domain) (Homo sapiens, UniProt P63000). Nature of the experiment: Rac Activation AlphaScreen Assay (Rac1 AS). Conditions: 500 nM GTPγS, 37° C., 1 hour; 'positive' = signal generated was higher than the positive control. Format: biochemical. Here is the method:
AlphaScreen® assays were performed in 96-well microplates in a final reaction volume of 60 μl. Recombinant His-Rac1, recombinant GST-PBD (PAK Binding Domain), donor and acceptor beads (PerkinElmer), and inhibitors were incubated in exchange buffer (20 mM Tris pH 7.5, 50 mM NaCl, 1 mM MgCl2, 1 mM EDTA, 500 nM GTPγS (guanosine 5′-[γ-thio]triphosphate)) at 37° C. Readings were performed on a Tecan M1000 pro microplate reader after 1 hour.

The test system of experiment [2] is PSA in LNCaP prostate cancer cells. Nature of the experiment: Inhibition of Increased Protein Levels of PSA (immunoblot). The class given is cell-based. Conditions: 10 nM DHT, 18 hours, 5 uM enzalutamide, 10, 15 or 20 uM 0032661. As for the experimental part:
After 18 hours protein was harvested. SDS-PAGE followed by immunoblotting of samples was performed using standard techniques. Protein lysates were immunoblotted for the Androgen Receptor (AR), PSA, and Actin.

The next experiment concerns the target T1, Rac1 protein (Homo sapiens, UniProt P63000).
T1 construct: purchased Cytoskeleton Inc. RC01
The experiment is described as follows: Fluorescence Polarization Assay (Rac1 FP). The class given is binding. Conditions: 125 nM his-tagged Rac1, 12.5 nM Bodipy-TR GTPγS, 30 minutes at 37° C. Summed up: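 His-tagged recombinant Rac1 (125 nM final) plus 12.5 nM Bodipy-TR GTPγS incubated with serially diluted compound for 30 min at 37 °C. Buffer: 20 mM Tris pH 7.5, 50 mM NaCl, 1 mM MgCl, 1 mM EDTA. Fluorescence polarization read at 590/625 nm excitation/emission.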

The test system of experiment [3] is androgen receptor splice variant (ARV7) in LNCaP cells. Nature of the experiment: LNCaP ARE Luciferase Assay, ARV7 cells. The class given is cell-based. Conditions: LNCaP cells overexpressing ARV7, 10 nM DHT, 4 hours; 5 or 10 uM 0032661. As for the experimental part:
LNCaP prostate cancer cells as well as LNCaP cells that overexpress the oncogenic androgen receptor splice variant (designated ARV7) were engineered to express an Androgen Receptor (AR) luciferase reporter (SABiosciences). […] After 4 hours, cell lysate was harvested. 50 μg protein lysates were used in a luciferase assay.

The subject of experiment [4] is estrogen receptor response genes Cyclin D1 and pS2 in MCF7 breast cancer cells. Nature of the experiment: Inhibition of Estrogen Receptor Target Gene Protein Expression (immunoblot). Format: cell-based. Conditions: MCF7, 10 nM E2, 18 hours. Here is the method: After 18 hours, protein was harvested. SDS-PAGE followed by immunoblotting of samples was performed using standard techniques. Protein lysates were immunoblotted for Estrogen Receptor (ER), Cyclin D1, pS2, and Actin.

Experimental findings from US10472352B2, “Rac inhibitors” (Geneyus LLC, priority 2017, dated 2019) are described below.

For `FC(F)(F)c1ccc2c(SCCCCCCn3cnc(CN4CCOCC4)c3)ccnc2c1` [Compound 0032661, 4-[[1-[6-[[7-(trifluoromethyl)-4-quinolyl]sulfanyl]hexyl]imidazol-4-yl]methyl]morpholine], the results for the IC50 (in experiment [1]; on Rac1 protein) were 44.8 µM and 3.25 µM, respectively. Besides, the “increase in protein levels of PSA” value in experiment [2] is “inhibit the increase in protein levels of PSA”. Also, in experiment [3], the “luciferase expression of the ARV7 splice variant” value is “inhibited luciferase expression of the ARV7 splice variant”. In addition, the “estrogen receptor target gene protein expression, combination” value in experiment [4] (1 uM fulv plus 5 uM 0032661) is “reduces estrogen receptor target gene protein expression more than either single treatment alone”. For the same compound, in experiment [4] (1 uM fulvestrant, 5 or 10 uM 0032661), the “protein levels of estrogen receptor target genes (Cyclin D1, pS2)” value is given as “inhibit the increase in protein levels of estrogen receptor target genes”.
